Laboratory results as given in ChEMBL document CHEMBL1909046, “DrugMatrix in vitro pharmacology data”.

Columns and labels:
[1] = target: T1, Androgen receptor (Rattus norvegicus, UniProt P15207); also: in other assays of this panel Not Active means under 50% inhibition at 10 µM
T1 sequence (P15207 whole entry): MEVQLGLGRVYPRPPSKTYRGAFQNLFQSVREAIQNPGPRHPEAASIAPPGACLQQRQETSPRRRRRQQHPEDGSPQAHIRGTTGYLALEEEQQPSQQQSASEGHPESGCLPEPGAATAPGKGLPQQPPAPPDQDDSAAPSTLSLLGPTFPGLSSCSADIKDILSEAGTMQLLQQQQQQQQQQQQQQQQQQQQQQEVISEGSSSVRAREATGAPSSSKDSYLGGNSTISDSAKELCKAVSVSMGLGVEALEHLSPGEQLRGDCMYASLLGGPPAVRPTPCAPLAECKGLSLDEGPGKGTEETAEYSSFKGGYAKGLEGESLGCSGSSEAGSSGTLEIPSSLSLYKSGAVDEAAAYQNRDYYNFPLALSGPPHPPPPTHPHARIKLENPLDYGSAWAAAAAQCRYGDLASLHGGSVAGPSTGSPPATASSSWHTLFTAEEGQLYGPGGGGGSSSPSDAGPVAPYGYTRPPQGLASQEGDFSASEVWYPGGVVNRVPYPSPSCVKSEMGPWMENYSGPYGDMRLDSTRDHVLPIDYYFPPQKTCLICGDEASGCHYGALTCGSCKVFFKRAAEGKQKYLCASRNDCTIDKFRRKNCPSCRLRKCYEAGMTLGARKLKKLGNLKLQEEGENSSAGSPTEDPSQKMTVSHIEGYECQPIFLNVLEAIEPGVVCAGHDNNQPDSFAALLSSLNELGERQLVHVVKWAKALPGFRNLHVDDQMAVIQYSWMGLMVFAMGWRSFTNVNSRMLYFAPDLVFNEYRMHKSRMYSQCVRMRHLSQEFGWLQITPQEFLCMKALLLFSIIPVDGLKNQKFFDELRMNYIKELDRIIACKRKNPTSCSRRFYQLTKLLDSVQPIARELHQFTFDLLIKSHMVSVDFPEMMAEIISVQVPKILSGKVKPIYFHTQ

[2] = DRUGMATRIX: Sigma2 radioligand binding (ligand: [3H] Ifenprodil); format: cell membranes, Rattus norvegicus, Wistar, Brain, Membrane; conditions: Not Active = under 50% inhibition at 10 µM
[3] = target: T2, Estrogen receptor (Homo sapiens, UniProt P03372); test: biochemical; also: in other assays of this panel Not Active means under 50% inhibition at 10 µM
T2 sequence (P03372 whole entry): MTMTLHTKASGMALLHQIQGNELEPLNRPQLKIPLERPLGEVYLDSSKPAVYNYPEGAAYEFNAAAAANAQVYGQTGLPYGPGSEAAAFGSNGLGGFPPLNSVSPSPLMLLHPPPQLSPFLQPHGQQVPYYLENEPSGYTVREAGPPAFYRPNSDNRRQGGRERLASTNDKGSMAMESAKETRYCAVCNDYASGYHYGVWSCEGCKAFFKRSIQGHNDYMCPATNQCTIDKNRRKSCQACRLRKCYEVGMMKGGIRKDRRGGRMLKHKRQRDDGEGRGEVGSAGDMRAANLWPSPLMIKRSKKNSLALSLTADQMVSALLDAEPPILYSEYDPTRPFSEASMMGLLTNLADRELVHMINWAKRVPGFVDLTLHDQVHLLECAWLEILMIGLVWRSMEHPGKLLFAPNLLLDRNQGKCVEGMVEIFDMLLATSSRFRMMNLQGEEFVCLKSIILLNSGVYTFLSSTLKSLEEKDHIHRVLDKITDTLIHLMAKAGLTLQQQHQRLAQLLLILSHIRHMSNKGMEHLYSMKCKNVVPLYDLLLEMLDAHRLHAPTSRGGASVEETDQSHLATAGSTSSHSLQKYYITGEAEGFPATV

[4] = target: Cytochrome P450 2C19 (Homo sapiens, UniProt P33261); also: in other assays of this panel Not Active means under 50% inhibition at 10 µM
[5] = target: Cytochrome P450 2C9 (Homo sapiens, UniProt P11712); also: in other assays of this panel Not Active means under 50% inhibition at 10 µM
[6] = target: T3, Glucocorticoid receptor (Homo sapiens, UniProt P04150); test: biochemical; also: in other assays of this panel Not Active means under 50% inhibition at 10 µM
T3 sequence (P04150 whole entry): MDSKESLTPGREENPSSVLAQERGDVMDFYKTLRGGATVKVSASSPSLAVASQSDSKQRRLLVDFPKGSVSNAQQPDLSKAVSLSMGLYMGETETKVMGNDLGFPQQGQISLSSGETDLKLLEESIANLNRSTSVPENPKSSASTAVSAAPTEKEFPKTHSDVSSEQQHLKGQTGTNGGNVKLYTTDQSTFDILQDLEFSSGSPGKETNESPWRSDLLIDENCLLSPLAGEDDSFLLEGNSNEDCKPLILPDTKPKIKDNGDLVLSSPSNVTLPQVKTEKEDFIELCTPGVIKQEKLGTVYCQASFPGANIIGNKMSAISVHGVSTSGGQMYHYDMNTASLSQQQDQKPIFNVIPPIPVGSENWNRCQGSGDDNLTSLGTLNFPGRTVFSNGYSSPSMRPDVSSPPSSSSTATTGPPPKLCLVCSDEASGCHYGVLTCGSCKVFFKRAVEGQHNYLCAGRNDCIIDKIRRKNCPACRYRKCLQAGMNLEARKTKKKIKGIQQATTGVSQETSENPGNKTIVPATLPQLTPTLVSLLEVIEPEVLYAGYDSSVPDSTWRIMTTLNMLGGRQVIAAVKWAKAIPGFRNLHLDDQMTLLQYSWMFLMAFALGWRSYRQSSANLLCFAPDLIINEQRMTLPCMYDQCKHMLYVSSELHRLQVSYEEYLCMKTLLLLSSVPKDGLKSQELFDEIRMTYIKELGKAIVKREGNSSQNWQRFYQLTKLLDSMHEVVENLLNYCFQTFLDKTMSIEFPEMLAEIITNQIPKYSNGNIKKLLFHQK

Chain of Cytochrome P450 2C19 (P33261 whole entry): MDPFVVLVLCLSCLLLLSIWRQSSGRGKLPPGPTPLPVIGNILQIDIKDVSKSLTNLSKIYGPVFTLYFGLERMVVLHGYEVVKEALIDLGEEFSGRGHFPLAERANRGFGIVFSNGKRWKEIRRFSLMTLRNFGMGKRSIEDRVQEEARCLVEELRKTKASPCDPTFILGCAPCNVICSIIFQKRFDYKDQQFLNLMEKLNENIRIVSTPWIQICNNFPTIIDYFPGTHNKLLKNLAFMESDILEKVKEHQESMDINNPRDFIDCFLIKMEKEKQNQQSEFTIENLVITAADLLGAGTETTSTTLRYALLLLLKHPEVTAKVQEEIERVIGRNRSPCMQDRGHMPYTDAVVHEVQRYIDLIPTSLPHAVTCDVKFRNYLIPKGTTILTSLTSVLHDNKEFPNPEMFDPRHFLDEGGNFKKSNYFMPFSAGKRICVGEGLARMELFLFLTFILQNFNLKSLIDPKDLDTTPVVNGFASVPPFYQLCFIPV
Chain of Cytochrome P450 2C9 (P11712 whole entry): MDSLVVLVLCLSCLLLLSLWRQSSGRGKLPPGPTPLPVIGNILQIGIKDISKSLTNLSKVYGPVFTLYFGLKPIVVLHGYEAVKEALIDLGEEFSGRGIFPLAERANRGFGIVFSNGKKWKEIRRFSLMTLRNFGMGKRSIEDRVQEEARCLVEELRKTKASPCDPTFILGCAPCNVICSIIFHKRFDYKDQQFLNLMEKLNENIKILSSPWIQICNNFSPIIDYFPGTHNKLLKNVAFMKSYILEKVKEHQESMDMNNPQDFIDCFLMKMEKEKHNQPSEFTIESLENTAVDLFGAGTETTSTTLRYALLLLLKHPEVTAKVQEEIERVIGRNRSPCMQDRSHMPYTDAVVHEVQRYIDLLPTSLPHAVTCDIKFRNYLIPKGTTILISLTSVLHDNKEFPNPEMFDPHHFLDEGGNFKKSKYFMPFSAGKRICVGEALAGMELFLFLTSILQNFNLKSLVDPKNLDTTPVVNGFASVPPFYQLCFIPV

Molecule	IC50 [1]	IC50 [2]	Ki [2]	IC50 [3] [µM]	Ki [3] [µM]	IC50 [4] [µM]	IC50 [5] [µM]	IC50 [6] [µM]	Ki [6] [µM]	Ki [1]
Nn1nnc2ccccc21	Not Active	Not Active	Not Active	–	–	–	–	–	–	–
CC[C@]1(O)CC[C@H]2[C@@H]3CCC4=CCCC[C@@H]4[C@H]3CC[C@@]21C	–	Not Active	Not Active	1.12	0.32	1.29	–	–	–	–
O=C(c1ccccc1Cl)N1CCC(Cc2ccccc2)CC1	Not Active	Not Active	Not Active	–	–	0.2	2	–	–	–
Clc1cc2c(cc1Cl)Oc1cc(Cl)c(Cl)cc1O2 [2,3,7,8-TETRACHLORODIBENZO-P-DIOXIN]	Not Active	Not Active	Not Active	–	–	–	–	–	–	–
CCCCCC[C@H]1C(=O)O[C@H](C)[C@H](NC(=O)c2cccc(NC=O)c2O)C(=O)O[C@@H](C)[C@@H]1OC(=O)CC(C)C [ANTIMYCIN A]	Not Active	Not Active	Not Active	–	–	–	–	–	–	–
C[C@@H]1CC[C@H]2[C@@H](C)C(=O)O[C@@H]3O[C@@]4(C)CC[C@@H]1[C@]32OO4 [ARTEMISININ]	Not Active	Not Active	Not Active	–	–	–	–	–	–	–
CC(C)(C)c1ccc(S(=O)(=O)/C=C/C#N)cc1 [BAY-11-7085]	Not Active	Not Active	Not Active	–	–	–	–	–	–	–
CCc1oc2ccccc2c1C(=O)c1cc(Br)c(O)c(Br)c1 [BENZBROMARONE]	Not Active	Not Active	Not Active	–	–	–	–	–	–	–
O=c1cc(-c2ccccc2)oc2ccc3ccccc3c12 [BETA-NAPHTHOFLAVONE]	Not Active	Not Active	Not Active	–	–	–	–	–	–	–
O=C(/C=C/c1ccc(O)c(O)c1)OCCc1ccccc1 [CAFFEIC ACID PHENETHYL ESTER]	Not Active	Not Active	Not Active	7.91	2.26	–	–	–	–	–
CC(C)(Oc1ccc(C2CC2(Cl)Cl)cc1)C(=O)O (stereo not drawn) [CIPROFIBRATE]	Not Active	Not Active	Not Active	–	–	–	–	–	–	–
C#C[C@]1(O)CC[C@H]2[C@@H]3CCC4=Cc5oncc5C[C@]4(C)[C@H]3CC[C@@]21C [DANAZOL]	–	Not Active	Not Active	17.8	5.08	–	–	4.31	1.96	–
C#C[C@]1(O)CC[C@H]2[C@@H]3CCc4cc(O)ccc4[C@H]3CC[C@@]21C [ETHINYL ESTRADIOL]	–	Not Active	Not Active	–	–	–	–	1.71	0.777	–
OCCO [ETHYLENE GLYCOL]	Not Active	Not Active	Not Active	–	–	–	–	–	–	–
CC(=O)OCC(CCn1cnc2cnc(N)nc21)COC(C)=O [FAMCICLOVIR]	Not Active	Not Active	Not Active	–	–	–	–	–	–	–
O=C(O)Cc1ccc(-c2ccccc2)cc1 [FELBINAC]	Not Active	Not Active	Not Active	–	–	–	–	–	–	–
Cc1cn[nH]c1 [FOMEPIZOLE]	Not Active	Not Active	Not Active	–	–	–	–	–	–	–
C[C@H]([C@](O)(Cn1cncn1)c1ccc(F)cc1F)S(C)(=O)=O [GENACONAZOLE]	Not Active	Not Active	Not Active	–	–	–	–	–	–	–
COc1ccccc1OCC(O)CO (stereo not drawn) [GUAIFENESIN]	Not Active	Not Active	Not Active	–	–	–	–	–	–	–
N=C(N)N/N=C/c1c(Cl)cccc1Cl [GUANABENZ]	Not Active	Not Active	Not Active	–	–	–	–	–	–	–
C[C@]12CCC(=O)C=C1CC[C@@H]1[C@@H]2[C@@H](O)C[C@@]2(C)[C@H]1CC[C@]2(O)C(=O)CO [HYDROCORTISONE]	Not Active	Not Active	Not Active	–	–	–	–	–	–	–
CC(=O)O[C@]1(C(C)=O)CC[C@H]2[C@@H]3C=C(C)C4=CC(=O)CC[C@]4(C)[C@H]3CC[C@@]21C [MEGESTROL ACETATE]	–	Not Active	Not Active	–	–	–	10	0.019	0.00877	–
CN(Cc1cnc2nc(N)nc(N)c2n1)c1ccc(C(=O)N[C@@H](CCC(=O)O)C(=O)O)cc1 [METHOTREXATE]	Not Active	Not Active	Not Active	–	–	–	–	–	–	–
CNC(=C[N+](=O)[O-])NCCSCc1csc(CN(C)C)n1 [NIZATIDINE]	Not Active	Not Active	Not Active	–	–	–	–	–	–	–
COc1ccc(Cc2nccc3cc(OC)c(OC)cc23)cc1OC [PAPAVERINE]	Not Active	Not Active	Not Active	–	–	0.762	–	–	–	–
Cc1cccc(Nc2cc(Cl)nc(SCC(=O)O)n2)c1C [PIRINIXIC ACID]	Not Active	Not Active	Not Active	–	–	–	–	–	–	–
COBALT(II) ACETYLACETONATE	Not Active	Not Active	Not Active	–	–	–	–	–	–	Not Active
INSULIN HUMAN	Not Active	Not Active	Not Active	–	–	–	–	–	–	Not Active
POLYVINYL ALCOHOL	Not Active	Not Active	Not Active	–	–	–	–	–	–	Not Active
